Source: patent US20050261162A1, “Pharmaceutical composition for preventing and treating cancer and treating an inflammation” (priority 2001, published 2005)
Several values for one entry are separate records, joined by “and”; a condition that tells them apart may be missing. Equal values may be shown once.

Experiments:
[1] = test system: Salmonella typhimurium TA102 strain; assay: Antimutagenic effect on mutagenesis induced by reactive oxygen species (His+ revertant colonies); type: cell-based; conditions: compared with curcumin as positive control
Experimental: The antimutagenic effect of xanthorrhizol was examined in Salmonella typhimurium TA102 strain including mutagenesis with reactive oxygen species (Levin, D. E., et al., Proc. Natl. Acad. Sci. U. S. A., 79;7445-7449, 1982).
Salmonella typhimurium TA102 strain was cultured in Oxoid nutrient broth medium for 11 hours. 100 μl of above-cultured medium was added to 600 μl of the reaction mixture containing tert-butylhydroperoxide (100 μg/plate) or hydrogen peroxide (50 μg/plate) with or without xanthorrhizol and incubated for 30 minutes at 37° C. Curcumin was added instead of xanthorrhizol in positive control. The concentration of xanthorrhizol or curcumin was 0, 10, 20, 40, 60 nmol/plate and 2, 4, 8, 10, 20, 50 nmol/plate respectively in experiment to examine the inhibitory effect of xanthorrhizol against tert-butylhydroperoxide and hydrogen peroxide-induced mutagenesis. The reaction mixture was transferred to 2 ml of top agar solution containing 0.5 mM of histidine and biotin and was homogeneously mixed. It was poured to minimal glucose plate. The plates were incubated for 48 hours at 37° C. and the number of His+ revertant colonies counted.

COX-2 = target: T1, COX-2 (Mus musculus, UniProt Q05769); assay: Inhibition of LPS-induced COX-2 activity (PGE2 production) in RAW264.7 macrophage cells; type: cell-based; conditions: LPS 1 μg/ml, 16 hr
T1 construct: endogenous in cells; host or cells: RAW264.7 macrophage cells, LPS-stimulated
T1 sequence (Q05769 18-604): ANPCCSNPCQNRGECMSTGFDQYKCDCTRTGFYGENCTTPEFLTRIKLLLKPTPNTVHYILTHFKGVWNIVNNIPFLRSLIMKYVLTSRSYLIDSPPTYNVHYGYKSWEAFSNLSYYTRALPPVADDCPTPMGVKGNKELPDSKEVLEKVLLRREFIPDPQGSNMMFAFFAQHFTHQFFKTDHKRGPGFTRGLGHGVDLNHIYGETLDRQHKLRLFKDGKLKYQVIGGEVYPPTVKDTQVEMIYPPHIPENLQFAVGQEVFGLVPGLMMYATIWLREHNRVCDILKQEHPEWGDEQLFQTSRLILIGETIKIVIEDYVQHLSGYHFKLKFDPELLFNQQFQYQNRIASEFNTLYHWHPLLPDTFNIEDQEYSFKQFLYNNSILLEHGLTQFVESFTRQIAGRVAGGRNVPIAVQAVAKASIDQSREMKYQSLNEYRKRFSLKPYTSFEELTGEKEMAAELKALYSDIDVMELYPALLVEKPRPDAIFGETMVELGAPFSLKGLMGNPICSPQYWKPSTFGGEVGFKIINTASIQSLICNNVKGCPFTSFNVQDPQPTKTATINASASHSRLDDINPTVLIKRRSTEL
Experimental: If a cell was treated with LPS, the activity of COX-2 increases. On the basis of this fact, to investigate the effect of xanthorrhizol on LPS-induced COX-2 activity, the quantity of PGE2 released from cells was measured as follows.
RAW264.7 macrophage cells were maintained in DMEM supplemented with penicillin-streptomycin and 10% FBS at 37° C., in 5% CO2 of humidified air. The cells (10×10^5 cells/ml, 200 μl) were allowed to adhere for 4 hr in the presence of aspirin (500 μM) in a 96-well culture plate to inhibit irreversibly COX activity in cells, washed 3 times with media, and then incubated in the fresh medium with 1 μg/ml of LPS. Xanthorrhizol was simultaneously added to each well. After an additional 16 hr incubation, the media were recovered and analyzed by PGE2 enzyme immunometric assay. The medium recovered from each well was added to each well attached anti-PGE2 antibody (Amersham Life Science, Arlington Heights, Ill.) with PGE2-acetylcholineesterase tracer, incubated for 18 hr at room temperature and then washed five times with 0.05% Tween 20-phosphate buffer solution. […] Absorbance at 405 nm was measured. PGE2 in each medium treated with xanthorrhizol was quantified in calibration curve graphed with standard PGE2. […] The percentage inhibition was expressed as [1-(PGE2 level of sample/PGE2 level of vehicle treated−control)]×100.

HL-60 cells = assay: DNA fragmentation in HL-60 cells (agarose gel electrophoresis); type: cell-based, Human; conditions: 80 μM, 24 hr
Experimental: HL-60 cells were cultured in 10% FBS-RPMI 1640 medium of 100 mm Petri dish for 2 days. The cells were treated with 0,10, 40, 80 μM of xanthorrhizol to investigate the effect of xanthorrhizol on DNA fragmentation, a biochemical marker of apoptosis. After 24 hr, the cells were collected, incubated with 500 μl of lysis buffer (1 % Triton-X 100, 50 mM Tris-HCl pH 7.4, 20 mM EDTA) for 1 hr on ice, and centrifuged. To the supernatant was added 100 μl of 1% SDS, 10 μl f TE/RNase(10 mg/ml), 50 µl of proteinase K (1 mg/ml) and the mixture was incubated at 37° C. at least for 4 hr. DNA was extracted with phenol-chloroform-isoamylalcohol (25:24:1, v/v) and precipitated at −70° C. for 1 hr after addition of 2.5 volumes of cold ethanol. DNA fragments were resolved by 1.5% agarose gel electrophoresis and visualized by staining with ethidium bromide.

procaspase-3 = assay: Activation of procaspase-3 in HL-60 cells (western blotting); type: cell-based, Human; conditions: 40 μM
Experimental: To investigate whether xanthorrhizol also induces the activation of procaspase-3, HL-60 cells were treated with 0, 10, 40, 80 μM of xanthorrhizol for 24 hr and was also treated with 80 μM of xanthorrhizol for 0, 2, 4, 6, 9 and 12 hr. The cells were harvested, suspended in 400 μl of lysis buffer described in embodiment 4, incubated 4° C. for 40 min and centrifuged. The supernatant was electrophoresized on the 12% SDS-polyacrylamide gel. Blot was transferred from SDS-polyacrylamide gel to PVDF membrane, blocked with 5% fat-free dry milk-PBST buffer for 2 hr at room temperature and then washed in PBST buffer. Membrane was incubated for 2 hr at room temperature with mouse procaspase-3 monoclonal antibody (Transduction Laboratories, Lexington, Ky., USA). Blot was rinsed with PBST, incubated with mouse horseradish peroxidase-conjugated secondary antibody and again washed 3 times in PBST buffer for 5 min. Transferred protein was visualized with an ECL detection kit.

CC(C)=CCC[C@@H](C)c1ccc(C)c(O)c1 [xanthorrhizol]
inhibitory effect against mutagenesis induced by hydrogen peroxide ([1]; hydrogen peroxide 50 μg/plate): more excellent inhibitory effect | inhibitory effect against mutagenesis induced by tert-butylhydroperoxide ([1]; tert-butylhydroperoxide 100 μg/plate): more excellent inhibitory effect | IC50 (COX-2): 321 nM and 320 nM | percentage inhibition of LPS-induced PGE2 production (COX-2 activity) (COX-2; concentration of not less than 1 μg/ml): not less than 98% | DNA fragmentation (HL-60 cells): induced | activation of procaspase-3 (procaspase-3): activated the procaspase-3 to caspase-3
